Legend:
Assay type in all cases: cell-based
LECT2 = test: RNA-seq of LECT2 expression in compound-treated primary human hepatocytes
Protocol: (§1) Human hepatocytes were obtained from two donors from Massachusetts General Hospital, namely MGH54 and MGH63, and one donor from Lonza, namely HUM4111B. Cryopreserved hepatocytes were cultured in plating media for 16 hours, transferred to maintenance media for 4 hours. Cultured on serum-free media for 2 hours, then a compound was added. The hepatocytes were maintained on the serum-free media for 16 hours prior to gene expression analysis. Primary human hepatocytes were stored in the vapor phase of a liquid nitrogen freezer (about −130° C.).
(§2) Human hepatocytes cultured as described above were plated in 24-well format, adding 375,000 cells per well in a volume of 500 ul plating medium. Four hours before treatment, cells were washed with PBS and the medium was changed to either: fresh maintenance medium (complete) or modified maintenance medium.
(§3) Compound stocks were prepared at 1000× final concentration and added in a 2-step dilution to the medium to reduce risk of a compound precipitating out of solution when added to the cells, and to ensure reasonable pipetting volumes. One at a time, each compound was first diluted 10-fold in warm (about 37° C.) modified maintenance medium (initial dilution=ID), mixed by vortexing, and the ID was diluted 100-fold into the cell culture (e.g. 5.1 ul into 1 well of a 24-well plate containing 0.5 mL medium). The plate was mixed by carefully swirling and after all wells were treated and returned to the incubator overnight. If desired, separate plates/wells were treated with vehicle-only controls and/or positive controls. If using multi-well plates, controls were included on each plate. After about 18 hours, cells were harvested for further analysis, e.g., ChIP-seq, RNA-seq, ATAC-seq, etc.
(§4) This protocol is a modified version of the following protocols: MagMAX mirVana Total RNA Isolation Kit User Guide (Applied Biosystems #MAN0011131 Rev B.0), NEBNext Poly(A) mRNA Magnetic Isolation Module (E7490), and NEBNext Ultra Directional RNA Library Prep Kit for Illumina (E7420) (New England Biosystems #E74901).
(§5) The MagMAX mirVana kit instructions (the section titled “Isolate RNA from cells” on pages 14-17) were used for isolation of total RNA from cells in culture. Two hundred μl of Lysis Binding Mix was used per well of the multiwell plate containing adherent cells (usually a 24-well plate).
(§6) For mRNA isolation and library prep, the NEBNext Poly(A) mRNA Magnetic Isolation Module and Directional Prep kit was used. RNA isolated from cells above was quantified, and prepared in […] of each sample in 50 μl of nuclease-free water. This protocol may be run in microfuge tubes or in a 96-well plate.
Standard QC were applied (read integrity, mapping statistics, library complexity, fragment bias) to remove unsatisfactory samples. […] Log 2 fold change and significance values were computed using PME count data (with replicates explicitly modeled versus pan-experiment controls), median ratio normalized, using maximum likelihood estimation rather than maximum a posteriori, and disabling the use of Cook's distance cutoff when determining acceptable adjusted p-values. […] RNA-seq signals were also normalized by read depth and visualized using the UCSC browser.
To identify small molecules that modulate target gene expression, primary human hepatocytes were prepared as a monoculture, and at least one small molecule compound was applied to the cells.
RNA-seq was performed to determine the effects of the compounds on the expression of the target genes in hepatocytes. Fold change was calculated by dividing the level of expression in the cell system that had been perturbed by the level of expression in an unperturbed system. Changes in expression having a p-value ≤0.05 were considered significant.
Significance was defined as an FPKM ≥1, a log 2(fold change) ≥0.5, and a q-value of ≤0.05 for all targets except for CPOX.

NOTCH2 = test: RNA-seq of NOTCH2 expression in compound-treated primary human hepatocytes; conditions: primary human hepatocytes
Protocol: (§7) Human hepatocytes were obtained from two donors from Massachusetts General Hospital, namely MGH54 and MGH63, and one donor from Lonza, namely HUM4111B. Cryopreserved hepatocytes were cultured in plating media for 16 hours, transferred to maintenance media for 4 hours. Cultured on serum-free media for 2 hours, then a compound was added. The hepatocytes were maintained on the serum-free media for 16 hours prior to gene expression analysis. Primary human hepatocytes were stored in the vapor phase of a liquid nitrogen freezer (about -130° C.). Human hepatocytes cultured as described above were plated in 24-well format, adding 375,000 cells per well in a volume of 500 ul plating medium. Four hours before treatment, cells were washed with PBS and the medium was changed to either: fresh maintenance medium (complete) or modified maintenance medium. Compound stocks were prepared at 1000× final concentration and added in a 2-step dilution to the medium to reduce risk of a compound precipitating out of solution when added to the cells, and to ensure reasonable pipetting volumes. […] The plate was mixed by carefully swirling and after all wells were treated and returned to the incubator overnight. If desired, separate plates/wells were treated with vehicle-only controls and/or positive controls. If using multi-well plates, controls were included on each plate. After about 18 hours, cells were harvested for further analysis, e.g., ChIP-seq, RNA-seq, ATAC-seq, etc. This protocol is a modified version of the following protocols: MagMAX mirVana Total RNA Isolation Kit User Guide (Applied Biosystems #MAN0011131 Rev B.0), NEBNext Poly(A) mRNA Magnetic Isolation Module ([…]), and NEBNext Ultra Directional RNA Library Prep Kit for Illumina ([…]) (New England Biosystems #E74901). […] Two hundred μl of Lysis Binding Mix was used per well of the multiwell plate containing adherent cells (usually a 24-well plate). For mRNA isolation and library prep, the NEBNext Poly(A) mRNA Magnetic Isolation Module and Directional Prep kit was used. RNA isolated from cells above was quantified, and prepared in […] of each sample in 50 μl of nuclease-free water. This protocol may be run in microfuge tubes or in a 96-well plate. […] Genomic alignments were converted to transcriptome alignments based on reference transcript annotations from the Human GENCODE Gene Set release 24 (Harrow et al., Genome Res. […] Standard QC were applied (read integrity, mapping statistics, library complexity, fragment bias) to remove unsatisfactory samples. Differential gene expression was computed using the negative binomial model implemented by DESeq2 version 1.16.1 (Love et al., Genome Biol. (2014) 15(12):550). […] RNA-seq signals were also normalized by read depth and visualized using the UCSC browser. To identify small molecules that modulate target gene expression, primary human hepatocytes were prepared as a monoculture, and at least one small molecule compound was applied to the cells. RNA-seq was performed to determine the effects of the compounds on the expression of the target genes in hepatocytes. Fold change was calculated by dividing the level of expression in the cell system that had been perturbed by the level of expression in an unperturbed system.

JAG1 = test: RNA-seq of JAG1 expression in compound-treated primary human hepatocytes; conditions: for JAG1 Fold Change (Log2): primary human hepatocytes; for Significant modulation of JAG1 (in words): summary of Table 6
Protocol: as §7

SERPINC1 mRNA [1] = test: Quantitative PCR of SERPINC1 mRNA in mouse hepatocytes treated with compounds; conditions: for SERPINC1 mRNA, Mouse Heps, 1 uM: compound 1 uM; for SERPINC1 mRNA, Mouse Heps, 10 uM: compound 10 uM
Protocol: Samples were amplified using Taqman probes from ThermoFisher.
In some examples, RQ Min and RQ Max values are also reported. RQ Min and RQ Max are the minimum and maximum relative levels of gene expression in the test samples, respectively. They were calculated using the confidence level set in the analysis settings and the confidence level was set to one standard deviation (SD). These values were calculated using standard deviation as follows: […].
Compounds were tested in hepatocytes for upregulation of SERPINC1 mRNA for identification of potential treatments of SERPINC1/AT III deficiency.

SERPINC1 mRNA [2] = test: Quantitative PCR of SERPINC1 mRNA in primary human hepatocytes (Lonza Hu4282) treated with compounds; conditions: quantitative PCR
ANGPTL3 = test: RNA-seq of ANGPTL3 expression in compound-treated primary human hepatocytes; conditions: additional compounds (Table 13), linear fold change
Protocol: as §1, §2, §3, §4, §5, §6
All pass filter reads from each sample were mapped against the human genome (assembly GRCh38/GCA_000001405.15 “no alt” analysis set merged with hs38d1/GCA_000786075.2) using two pass mapping via STAR version 2.5.3a (alignment parameters alignIntronMin=20; alignIntronMax=1000000; outFilterMismatchNmax=999; outFilterMismatchNoverLmax=0.05; outFilterType=BySJout; outFilterMultimapNmax=20; alignSJoverhangMin=8; alignSJDBoverhangMin=1; alignMatesGapMax=1000000) (Dobin et al., Bioinformatics (2012) 29(1):15-21). Genomic alignments were converted to transcriptome alignments based on reference transcript annotations from the Human GENCODE Gene Set release 24 (Harrow et al., Genome Res. (2012) 22(9): 1760-1774). Using unique and multimapped transcriptomic alignments, gene-level abundance estimates were computed using RSEM version 1.3.0 (Li and Dewey, BMC Bioinformatics (2011) 12:323) in a strand-aware manner, and including confidence interval sampling calculations, to arrive at posterior mean estimates (PME) of abundances (counts and normalized FPKM—fragments per kilobase of exon per million mapped fragments) from the underlying Bayesian model. Standard QC were applied (read integrity, mapping statistics, library complexity, fragment bias) to remove unsatisfactory samples.

## O=[N+]([O-])c1ccc(Sc2cccc[n+]2[O-])c2nonc12 [NSC228155]
LECT2
  LECT2 Fold Change (Log2): −0.74 Log2

## [H]/N=C(/N)N/C(=N/[H])NCCc1ccccc1 [Phenformin]
NOTCH2
  NOTCH2 Fold Change (Log2): 0 Log2
JAG1
  JAG1 Fold Change (Log2): 1.14 Log2
  Significant modulation of JAG1 (in words): significantly modulate only JAG1

## CCCC(=O)O[C@@H]1[C@@H](C)[C@@]2(O)[C@@H](C=C(CO)C[C@]3(O)C(=O)C(C)=C[C@@H]23)[C@@H]2C(C)(C)[C@]12OC(=O)CCC [Phorbol 12,13-dibutyrate]
LECT2
  LECT2 Fold Change (Log2): −0.65 Log2

## CN1C/C=C/CCOc2cccc(c2)-c2ccnc(n2)Nc2cccc(c2)C1 [SB1317/TG02]
SERPINC1 mRNA [1]
  SERPINC1 mRNA, Mouse Heps, 1 uM: 1.13
  SERPINC1 mRNA, Mouse Heps, 10 uM: 1.85
SERPINC1 mRNA [2]; primary human hepatocytes Lonza Hu4282, compound 1 uM
  SERPINC1 mRNA, Lonza Hu4282, 1 uM: 1.9
SERPINC1 mRNA [2]; primary human hepatocytes Lonza Hu4282, compound 10 uM
  SERPINC1 mRNA, Lonza Hu4282, 10 uM: 2.28

## COc1cccc2cc(-c3nc([C@H]4CC[C@H](C(=O)O)CC4)n4ncnc(N)c34)[nH]c12 [compound 308 (OSI-027)]
SERPINC1 mRNA [1]
  SERPINC1 mRNA, Mouse Heps, 1 uM: 1.53
  SERPINC1 mRNA, Mouse Heps, 10 uM: 2.36
SERPINC1 mRNA [2]; hepatocytes H8290, compound 1 uM
  SERPINC1 mRNA, H8290, 1 uM: 1.7
SERPINC1 mRNA [2]; hepatocytes H8290, compound 10 uM
  SERPINC1 mRNA, H8290, 10 uM: 1.9

B1: GDF2 (BMP9): TGF-beta activator (protein, UniProt Q9UK05 320-429, looked up)
Growth/differentiation factor …: SAGAGSHCQKTSLRVNFEDIGWDSWIIAPKEYEAYECKGGCFFPLADDVTPTKHAIVQTLVHLKFPTKVGKACCVPTKLSPISVLYKDDMGVPTLKYHYEGMSVAECGCR
NOTCH2
  NOTCH2 Fold Change (Log2): 0 Log2
JAG1
  JAG1 Fold Change (Log2): 1.03 Log2
  Significant modulation of JAG1 (in words): significantly modulate only JAG1

B2: BMP4: TGF-beta activator (protein, UniProt P12644 293-408, looked up)
Bone morphogenetic protein 4: SPKHHSQRARKKNKNCRRHSLYVDFSDVGWNDWIVAPPGYQAFYCHGDCPFPLADHLNSTNHAIVQTLVNSVNSSIPKACCVPTELSAISMLYLDEYDKVVLKNYQEMVVEGCGCR
ANGPTL3
  ANGPTL3-LINEAR FOLD CHANGE: 0.3463
NOTCH2
  NOTCH2 Fold Change (Log2): 0 Log2
JAG1
  JAG1 Fold Change (Log2): 0.63 Log2
  Significant modulation of JAG1 (in words): significantly modulate only JAG1

Source: US20210161997A1, “TREATING DISEASES VIA TARGETED MODULATION OF GENE SIGNALING NETWORKS” (Camp4 Therapeutics Corporation, priority 2018, published 2021)
